{"source": "patent US6703390B2", "about": "“Sulfur containing dihydrophthalazine antagonists of excitatory amino acid receptors” (Transgenomic, Inc., priority 2000, dated 2004)", "origin": "cited, not measured here", "key": {"[1]": {"test_system": "common carotid arteries model of global ischemia", "conditions": "compared with the competitive antagonist NBQX"}, "[2]": {"test_system": "middle cerebral artery occlusion (MCAO) model of ischemia"}}, "note": "Read-outs that look alike come from different tables or passages of the source."}
{"smiles": "CC1=NN=C(c2ccc(N)cc2)c2cc3c(cc2C1)OCO3", "note": "[GYKI 52466]", "values": [{"measurement": "efficacy in global ischemia model", "setting": "[1]", "value": "as effective as the glutamate site competitive antagonist NBQX"}, {"measurement": "reduced cortical infarct volumes", "setting": "[2]; given continuously for 2 hours just after occlusion", "value": 68, "unit": "%"}, {"measurement": "reduced cortical infarct volumes", "setting": "[2]; given delayed for one hour after occlusion", "value": 48, "unit": "%"}, {"measurement": "efficacy in MCAO model of ischemia", "setting": "[2]; given either continuously for 2 hours just after occlusion or delayed for one hour", "value": "effective"}]}
